Drawing on PubChem BioAssay (NCI), this text covers GI50 and TGI for ten compounds.

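These data come from cells grown in 96-well plates and exposed to compound for 48 hours at five concentrations. GI50 is the concentration that inhibits growth by half. TGI is the concentration that stops growth completely.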

Among the test systems are KM12 colon; HT29 colon; A549 NSCLC; SF-268 CNS; NCI-H460 lung; OVCAR-3 ovarian; NCI-H226 lung; U251 CNS; COLO 205 colon; SK-OV-3 ovarian.
Experiment in all cases: NCI-60 cell line screen, 48 h

`CCN(CC)c1ccc2c(c1)Oc1nc(N)c(C#N)c(N)c1C2Sc1ccc(OC)cc1` (stereo not given): the GI50 with KM12 colon was 1.74 µM; with HT29 colon, 2.1 µM; in the test with A549 NSCLC it was 1.99 µM; in the test on SF-268 CNS, 1.85 µM; with NCI-H460 lung it was 1.94 µM; with OVCAR-3 ovarian it was 1.69 µM. Moreover, the GI50 with NCI-H226 lung was 1.82 µM; with U251 CNS it was 1.42 µM; in the test with COLO 205 colon, 1.88 µM; in the test with SK-OV-3 ovarian, 1.92 µM. In addition, the TGI with KM12 colon was found to be 3.73 µM; in the test with HT29 colon, 4.27 µM; with A549 NSCLC, 3.59 µM; with SF-268 CNS, 3.58 µM; with NCI-H460 lung, 3.81 µM; in the test on OVCAR-3 ovarian, 3.1 µM. Further, the TGI with NCI-H226 lung amounted to 3.55 µM; with U251 CNS, 2.81 µM; with COLO 205 colon, 3.65 µM; with SK-OV-3 ovarian it was 3.38 µM.

As for `CCN1C2=NCCN2S(=O)(=O)c2ccccc21`, the TGI in the test with KM12 colon, in the test on HT29 colon, in the test on A549 NSCLC, in the test on SF-268 CNS, in the test on NCI-H460 lung and in the test with OVCAR-3 ovarian was over 100 µM throughout. For the same compound, the TGI in the test on NCI-H226 lung, in the test with U251 CNS, in the test with COLO 205 colon and in the test on SK-OV-3 ovarian was over 100 µM in each case.

`COC(=O)NC1(NC(=O)OC)NC(=O)c2cc(OC)c(OC)c(OC)c2N1`: the TGI with KM12 colon, in the test on HT29 colon, in the test with A549 NSCLC, in the test on SF-268 CNS, in the test on NCI-H460 lung and with OVCAR-3 ovarian was over 100 µM in each case. The TGI with NCI-H226 lung, in the test on U251 CNS, in the test on COLO 205 colon and in the test on SK-OV-3 ovarian was over 100 µM throughout.

As to `O=c1cc(-c2ccccc2)oc2cc(O)cc(O)c12`, the TGI is 39.6 µM in the test with KM12 colon; over 100 µM with HT29 colon; over 100 µM in the test on A549 NSCLC; 74.8 µM in the test with SF-268 CNS; 40.2 µM with NCI-H460 lung; 82.1 µM with OVCAR-3 ovarian. Besides, the TGI in the test on NCI-H226 lung was 58.1 µM; in the test with U251 CNS, 87.5 µM; in the test with COLO 205 colon, 37.9 µM; in the test with SK-OV-3 ovarian it was 67 µM.

As to `CC1=C(C(=O)Nc2cc(=O)n(C)c(=O)n2C)C(c2ccc([N+](=O)[O-])cc2)C(C(=O)Nc2cc(=O)n(C)c(=O)n2C)=C(C)N1`, the TGI in the test on KM12 colon, in the test on HT29 colon, in the test with A549 NSCLC, with SF-268 CNS, in the test with NCI-H460 lung and in the test on OVCAR-3 ovarian was over 100 µM each time. The TGI with NCI-H226 lung, in the test on U251 CNS, in the test on COLO 205 colon and in the test with SK-OV-3 ovarian was over 100 µM throughout.

`CS(=O)(=O)CCNCc1ccc(-c2ccc3ncnc(Nc4ccc(OCc5cccc(F)c5)c(C(F)(F)F)c4)c3c2)o1`: the GI50 with KM12 colon was 4.06 µM; in the test with HT29 colon, 4.54 µM; in the test with A549 NSCLC it was 4.23 µM; with SF-268 CNS, 3.74 µM; in the test with NCI-H460 lung, 4.1 µM; with OVCAR-3 ovarian, 4.07 µM. Moreover, the GI50 was 3.44 µM with NCI-H226 lung, 3.98 µM in the test with U251 CNS, 4.37 µM in the test with COLO 205 colon and 3.61 µM with SK-OV-3 ovarian. The TGI with KM12 colon was found to be 7.63 µM; in the test with HT29 colon it was 8.92 µM; in the test with A549 NSCLC, 9.27 µM; in the test with SF-268 CNS it was 7.78 µM; in the test on NCI-H460 lung, 8.51 µM; with OVCAR-3 ovarian, 8.47 µM. Also, the TGI with NCI-H226 lung was determined as 6.75 µM; with U251 CNS it was 8.48 µM; in the test with COLO 205 colon, 7.99 µM; in the test on SK-OV-3 ovarian, 9.86 µM.

For `COc1ccc(/C=C2\CC(C)CC3C2=NN(C(C)=O)C3c2ccc(OC)cc2)cc1` (stereo not given), the GI50 in the test on KM12 colon was 16.9 µM; in the test on HT29 colon, 9.08 µM; with A549 NSCLC, 25.1 µM; in the test on SF-268 CNS, 20.8 µM; in the test with NCI-H460 lung, 18.5 µM; with OVCAR-3 ovarian it was 18.7 µM. The GI50 in the test with NCI-H226 lung is 16.5 µM; with U251 CNS it was 14.4 µM; with COLO 205 colon it was 25.7 µM; in the test with SK-OV-3 ovarian, 28.7 µM. Moreover, the TGI in the test on KM12 colon was 46.5 µM; with HT29 colon, 40.2 µM; in the test with A549 NSCLC it was over 100 µM; in the test with SF-268 CNS, 53.2 µM; with NCI-H460 lung, 48.7 µM; with OVCAR-3 ovarian, 42.4 µM. In addition, the TGI in the test with NCI-H226 lung was 39.1 µM; in the test on U251 CNS, 31 µM; in the test with COLO 205 colon it was 92.5 µM; in the test on SK-OV-3 ovarian it was over 100 µM.

As to `O=S(=O)(SCc1ccccc1)C(c1ccccc1)c1ccccc1`, the TGI in the test with KM12 colon was over 100 µM; in the test on HT29 colon, 71.4 µM; in the test with A549 NSCLC, over 100 µM; with SF-268 CNS, over 100 µM; in the test on NCI-H460 lung, over 100 µM; in the test with OVCAR-3 ovarian it was over 100 µM. In addition, the TGI was 54.5 µM in the test with NCI-H226 lung, over 100 µM with U251 CNS, 36.8 µM in the test with COLO 205 colon and over 100 µM in the test with SK-OV-3 ovarian.

With `O=[N+]([O-])/C=C/c1cc2ccccc2[nH]1`, the TGI with KM12 colon is 25 µM; in the test with HT29 colon, 35.5 µM; in the test with A549 NSCLC, 42.7 µM; in the test on SF-268 CNS it was 36.4 µM; in the test on NCI-H460 lung, 30.4 µM; in the test with OVCAR-3 ovarian, 28.2 µM. For the same compound, the TGI in the test with NCI-H226 lung was 37.7 µM; in the test on U251 CNS it was 25.8 µM; with COLO 205 colon it was 32.7 µM; with SK-OV-3 ovarian, 32.8 µM.

Consider `CN1CCN(c2ccc(Nc3nc(N)c(C(=O)c4ccc5c(c4)OCCO5)s3)cc2)CC1`, for which the GI50 with KM12 colon is 4.06 µM; in the test with HT29 colon, 2.68 µM; with A549 NSCLC it was 4.3 µM; in the test on SF-268 CNS it was 3.84 µM; in the test on NCI-H460 lung, 2.85 µM; with OVCAR-3 ovarian, 4.05 µM. Also, the GI50 was 2.71 µM in the test with NCI-H226 lung, 2.83 µM with U251 CNS, 2.27 µM with COLO 205 colon and 4.36 µM with SK-OV-3 ovarian. For the same compound, the TGI was 16.1 µM in the test with KM12 colon; 11.7 µM with HT29 colon; 15.7 µM in the test on A549 NSCLC; 10.5 µM in the test on SF-268 CNS; 9.75 µM in the test on NCI-H460 lung; 9.69 µM in the test with OVCAR-3 ovarian. Also, the TGI worked out at 11.8 µM in the test on NCI-H226 lung, 11 µM in the test on U251 CNS, 7.35 µM in the test with COLO 205 colon and 10.6 µM in the test on SK-OV-3 ovarian.
